Assay results: patent US20190083455A1, “METHODS AND COMPOSITIONS FOR THE MODULATION OF BETA-ENDORPHIN LEVELS” (The General Hospital Corporation, priority 2014, published 2019)
Structures can show the parent of a compound that is named as a salt.

How the values were obtained:
Assay type in all cases: in vivo
[1] = system: C57Bl/6 mice; experiment: Analgesic threshold testing (von Frey test and hot plate test) during UV/mock regimen; settings: 10 mg/kg ip 15 min prior to testing; chronically UV-irradiated mice
Excerpt: Mice underwent mechanical and thermal analgesic testing during UV/mock treatment regimens using the von Frey test (Kwan et al., 2006) and the hot plate test respectively (Mogil et al., 1999). In the von Frey test, mice were placed in individual enclosures on an elevated wire mesh rack and the plantar surface of the left hind paw was serially poked with fibers of increasing tensile strength (10 times per fiber at a rate of 1/second) until a paw withdrawal response was elicited on 2/10 pokes. In the hot plate test, mice were placed on a 52° C. hot plate and time to response (paw flutter, paw licking, jumping) was measured. […]
We developed a UV-exposure mouse model in which dorsally-shaved mice received a dose of 50 mJ/cm^2 of UVB, 5 days per week for 6 weeks, an empirically-derived sub-erythemic dose which is approximately equal to 20-30 minutes of ambient midday sun exposure in Florida during the summer for a fair-skinned person of average tanning ability (Fitzpatrick skin phototypes 2-3) (D'Orazio et al., 2006; Technology-Planning-and-Management-Corporation, 2000; US-EPA, 1994). […] We quantified mechanical and thermal nociceptive thresholds over six weeks of daily UV exposure. Mechanical nociception was measured by the von Frey test (Kwan et al., 2006), which exposes fibers of increasing tensile strength to the plantar paw surface to elicit a paw withdrawal response. […]

[2] = system: β-endorphin; experiment: Plasma β-endorphin radioimmunoassay in UV/mock irradiated mice; settings: mice treated twice a week with Naloxone or Saline; daily UV or Mock irradiation
Excerpt: Mice were dorsally shaved two days prior to the start of radiation exposure, then exposed to 50 mJ/cm^2/day of UVB, an empirically determined sub-erythematic dose, 5 days per week (Monday-Friday) for 6 weeks. If there were patches of fur re-growth, mice were re-shaved once every two weeks.
For blood draws, mice were placed in a standard restrainer and tail vein blood was collected in EDTA microvette tubes containing 0.6TIU aprotinin. Mice underwent blood draws prior to the start of radiation exposure, once per week during the radiation exposure regimen, and once per week for two weeks following cessation of the UV regimen. Blood was drawn in the mornings prior to radiation exposure on Fridays.
Tubes of collected blood were maintained on ice until centrifugation at 3500 RPM for 20 minutes at 4° C. Plasma was isolated and samples were stored at −80° C. until β-endorphin measurement. β-endorphin was quantified by radioimmunoassay (Phoenix Pharmaceuticals, Burlingame, Calif.).

[3] = system: C57Bl/6 mice; experiment: Straub Tail measurement; settings: 10 mg/kg ip, scored 15 minutes after injection; day 23 of the UV exposure regimen
Method: Straub Tail measurement was performed as described (Bilbey et al., 1960). Scoring was on a scale of 0-2 according to the angle of elevation of the tail from the horizontal plane (0=tail relaxed and no elevation; 1=tail is rigid and elevated 1-10° from horizontal; 1.5=11-45° elevation and rigidity at the base of the tail; 2=46-90° elevation and rigidity at the base of the tail). At each time point, each mouse was scored every 10 seconds for 1 minute and the final score was the average of these six values. Mice undergoing the six-week UV exposure regimen or mock treatment were scored prior to the start of the regimen, once per week during the regimen, and once per week for 2 weeks following cessation of UV/mock treatment. On day 23 of the regimen, after weekly Straub Tail scoring, mice were injected (intraperitoneal (ip)) with either 10 mg/kg naloxone hydrochloride (Sigma, St. Louis, Mo.) or saline. Mice underwent Straub Tail scoring again 15 minutes following injection.
Exogenous opioids produce a dose-dependent, μ-opioid receptor-mediated contraction of the sacrococcygeus dorsalis muscle at the tail base in rodents, resulting in rigidity and elevation of the tail, a phenomenon called “Straub Tail” (Bilbey et al., 1960). […]

[4] = system: C57Bl/6 mice; experiment: Somatic symptoms of opiate withdrawal after chronic UV exposure; settings: 2 mg/kg ip after 6 weeks of daily UV exposure; observed 25 minutes
Method: Mice that had undergone 6 weeks of daily UV exposure or mock exposure were injected (ip) with either 2 mg/kg naloxone or saline, and signs of opioid withdrawal were tabulated as described (Olson et al., 2006). […] Wet dog shake, teeth chatter, and bouts of grooming were measured as occurrence in each 15-second interval. Individual rearing events were counted. Number of fecal pellets at the end of the 25-minute interval was used to quantify diarrhea.

SMILES: C=CCN1CC[C@]23c4c5ccc(O)c4O[C@H]2C(=O)CC[C@@]3(O)[C@H]1C5 [naloxone, naloxone hydrochloride]
- mechanical nociceptive threshold (von Frey) [1]: suppressed the UV-induced increases in mechanical and thermal nociceptive thresholds
- thermal nociceptive threshold (hot plate 52° C.) [1]: suppressed the UV-induced increases in mechanical and thermal nociceptive thresholds
- plasma β-endorphin [2]: no significant effect of Naloxone treatment within either group
- Straub Tail score [3]: reversed the Straub Tail phenotype
- signs of opioid withdrawal [4]: elicited many of the classic murine signs of opioid withdrawal
